Patent US20040063734A1, “4,4-Disubstituted-3,4-dihydro-2 (1H)-quinazoliniones useful as HIV reverse transcriptase inhibitors” (priority 2002, published 2004)
In brackets after ≈: the same amount, converted by molar mass.

Test system: HIV-1 (RF)
Assay: HIV RNA assay: microplate based compound evaluation in HIV-1 infected MT-2 cells
Assay type: cell-based
Conditions: Human immunodeficiency virus 1, MT2, 72 h; HIV-1 (RF) infected MT-2 cells, 3 days culture; value used to standardize the virus inoculum; read-out: IC90 (concentration of compound required to reduce the HIV RNA level by 90%)
Method: DNA Plasmids and in vitro RNA Transcripts:
Plasmid pDAB 72 containing both gag and pol sequences of BH10 (bp 113-1816) cloned into PTZ 19R was prepared according to Erickson-Viitanen et al. AIDS Research and Human Retroviruses 1989, 5, 577. The plasmid was linearized with Bam HI prior to the generation of in vitro RNA transcripts using the Riboprobe Gemini system II kit (Promega) with T7 RNA polymerase. Synthesized RNA was purified by treatment with RNase free DNAse (Promega), phenol-chloroform extraction, and ethanol precipitation. RNA transcripts were dissolved in water, and stored at −70° C. The concentration of RNA was determined from the A260.
Biotinylated capture probes were purified by HPLC after synthesis on an Applied Biosystems (Foster City, Calif.) DNA synthesizer by addition of biotin to the 5′ terminal end of the oligonucleotide, using the biotin-phosphoramidite reagent of Cocuzza, Tet. Lett. 1989, 30, 6287. […]
MT-2 and MT-4 cells were maintained in RPMI 1640 supplemented with 5% fetal calf serum (FCS) for MT-2 cells or 10% FCS for MT-4 cells, 2 mM L-glutamine and 50 μg/mL gentamycin, all from Gibco. […] Infectious titers of HIV-1(RF) stocks were 1-3×10^7 PFU (plaque forming units)/mL as measured by plaque assay on MT-2 cells (see below). […]

## Nc1ccn([C@H]2CC[C@@H](CO)O2)c(=O)n1 [ddC, 2′,3′-dideoxycytidine]
  IC90: 0.2 µg/mL (≈ 0.947 µM)
